In PubChem BioAssay AID2060499 (Molecular Pharmacology Branch, DTP, NCI, 2025):

Test system: 777334-354-R2-J4-PDC tumor spheroids with HUVEC/MSC, viability
Assay: Anticancer human tumor 777334-354-R2-J4-PDC patient-derived pancreatic adenocarcinoma cell line growth inhibition [GQUAD]
Settings: for IC50: curve of first compound; for viability, T/C: stronger effect = lower value
Description: DNA G-quadruplex Stabilizer Agents in Combinations in Complex Spheroids
A high-throughput screen of multi-cell type tumor spheroids was designed to identify active combinations of DNA G-quadruplex stabilizer agents and targeted small molecules. Complex spheroids include a stromal component modeled by human endothelial cells (HUVEC) and fibroblasts modeled by human mesenchymal stem cells (MSCs). The concentration ranges selected for each drug and investigational agent were based upon clinically achievable concentrations if the clinical Cmax of the agent was known.
Compounds. The drugs and investigational agents: pidnarulex (CX-5461; NSC782164), APTO-253 (NSC789042), BRACO-19 (NSC847499), peposertib (NSC802822), ceralasertib (NSC780249), elimusertib (NSC800525), camonsertib (NSC841442), AZD-1390 (NSC803789), olaparib (NSC753686), talazoparib (NSC767125), ART-558 (NSC835418), sotorasib (NSC818433), MRTX-1133 (NSC836407), SN-38 (NSC673596), topotecan (NSC609699), etoposide (NSC141540), doxorubicin (NSC123127), gemcitabine (NSC613327), 5-fluorouracil (NSC19893), paclitaxel (NSC125973), vemurafenib (NSC761431), panobinostat (NSC761190), R-306465 (JNJ-16241199; NSC773264), adavosertib (NSC754352), TP-3654 (NSC805149), carboplatin (NSC241240), KSQ-4279 (NSC840948), and staurosporine (NSC755774) were obtained from the National Cancer Institute (NCI) Developmental Therapeutics Program Chemical Repository (34). The FDA-approved anticancer drug set is available from the NCI Developmental Therapeutics Program. […] The stock solutions were prepared in dimethyl sulfoxide (DMSO, Sigma-Aldrich, St. Louis, MO, cat. D2650) at 800-fold the tested concentration and stored at -70 degrees C prior to their use. All drugs and investigational agents were tested over a range starting from a high concentration at or near the clinical Cmax and decreasing in half-log increments. If the clinical Cmax for an agent had not been determined, the highest concentration tested was 10 microM.
2.3 Cell Culture. All cells were maintained in an incubator at 37 degrees C and 5% CO2 with 95% humidity. The PDC lines were cultured according to standard operating procedures established by the NCI PDMR. All PDCs were thawed and cultured in Matrigel-coated flasks prepared with a working solution of 1X Ham's F-12 nutrient mix, without supplementation (Invitrogen, cat. 11765054), 100 U/mL penicillin-streptomycin (Invitrogen, cat. 15140122), and 2.5% Matrigel (Corning Inc., cat. 354248) for the first three passages. The 857933-349-R-J2-PDC line was cultured in 6C/Colon 1B media, which includes advanced DMEM/F-12 (Thermo Fisher Scientific, cat. 12634028), 10 mM HEPES (Thermo Fisher Scientific, cat. 15630080), 1X GlutaMAX supplement (Thermo Fisher Scientific, cat. 35050061), 0.1 mg/mL primocin (InvivoGen, cat. ant-pm-2), 10% defined fetal bovine serum, heat inactivated (HyClone Laboratories Inc., cat. SH30070.03HI), 50% L-WRN conditioned media (ATCC, cat. CRL-3276), 1.25 mM N-Acetyl-L-cysteine (Sigma-Aldrich, cat. A9165), 10 mM nicotinamide (Sigma-Aldrich, cat. N0636), 1X B-27 supplement (Thermo Fisher Scientific, cat. 17504044), 1X N-2 supplement (Thermo Fisher Scientific, cat. 17502048), 10 microM Y-27632 dihydrochloride (Tocris Bioscience, cat. 1254), and 50 ng/mL human EGF recombinant protein (Thermo Fisher Scientific, cat. PHG0311). The 485176-168-R4-J1-PDC line was cultured in Panc media, which includes all 6C/Colon 1B media components plus 100 ng/mL human FGF-10 (Thermo Fisher Scientific, cat. 100-26), 500 nM SB-431542 (Selleckchem, cat. S1067), and gastrin (Tocris, cat. 3006).
[…]

[1] = second compound 0.0316 µM, first compound 0.0316 µM
[2] = second compound 0.0316 µM, first compound 0.316 µM
[3] = second compound 0.1 µM, first compound 0.0316 µM
[4] = second compound 0.1 µM, first compound 0.316 µM
[5] = second compound 0.316 µM, first compound 0.0316 µM
[6] = second compound 0.316 µM, first compound 0.316 µM
[7] = second compound 1 µM, first compound 0.0316 µM
[8] = second compound 1 µM, first compound 0.316 µM
[9] = second compound 3.16 µM, first compound 0.0316 µM
[10] = second compound 3.16 µM, first compound 0.316 µM
[11] = second compound 10 µM, first compound 0.0316 µM
[12] = second compound 10 µM, first compound 0.316 µM
[13] = second compound 0.0316 µM, first compound 0.000999 µM
[14] = second compound 0.0316 µM, first compound 0.00316 µM
[15] = second compound 0.0316 µM, first compound 0.00999 µM
[16] = second compound 0.0316 µM, first compound 0.0999 µM
[17] = second compound 0.1 µM, first compound 0.000999 µM
[18] = second compound 0.1 µM, first compound 0.00316 µM
[19] = second compound 0.1 µM, first compound 0.00999 µM
[20] = second compound 0.1 µM, first compound 0.0999 µM
[21] = second compound 0.316 µM, first compound 0.000999 µM
[22] = second compound 0.316 µM, first compound 0.00316 µM
[23] = second compound 0.316 µM, first compound 0.00999 µM
[24] = second compound 0.316 µM, first compound 0.0999 µM
[25] = second compound 1 µM, first compound 0.000999 µM
[26] = second compound 1 µM, first compound 0.00316 µM
[27] = second compound 1 µM, first compound 0.00999 µM
[28] = second compound 1 µM, first compound 0.0999 µM
[29] = second compound 3.16 µM, first compound 0.000999 µM
[30] = second compound 3.16 µM, first compound 0.00316 µM
[31] = second compound 3.16 µM, first compound 0.00999 µM
[32] = second compound 3.16 µM, first compound 0.0999 µM
[33] = second compound 10 µM, first compound 0.000999 µM
[34] = second compound 10 µM, first compound 0.00316 µM
[35] = second compound 10 µM, first compound 0.00999 µM
[36] = second compound 10 µM, first compound 0.0999 µM
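Further: spheroids exposed to compounds for 7 days before readout.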

C=CCn1c(=O)c2cnc(Nc3ccc(N4CCN(C)CC4)cc3)nc2n1-c1cccc(C(C)(C)O)n1 + Cc1cnc(CNC(=O)c2c(=O)c3ccc(N4CCCN(C)CC4)nc3n3c2sc2ccccc23)cn1
IC50 (second compound 0.0316 µM): 619 nM | IC50 (second compound 0.1 µM): 299 nM | IC50 (second compound 0.316 µM): 400 nM | IC50 (second compound 1 µM): 360 nM | IC50 (second compound 3.16 µM): 162 nM | IC50 (second compound 10 µM): 68.3 nM | viability, T/C [1]: 88.6% | viability, T/C (second compound 0.0316 µM, first compound 0.1 µM): 75.3% | viability, T/C [2]: 64.8% | viability, T/C (second compound 0.0316 µM, first compound 1 µM): 37.5% | viability, T/C (second compound 0.0316 µM, first compound 3.16 µM): 37.9% | viability, T/C (second compound 0.0316 µM, first compound 10 µM): 38.4% | viability, T/C [3]: 78.4% | viability, T/C (second compound 0.1 µM, first compound 0.1 µM): 67.8% | viability, T/C [4]: 50.2% | viability, T/C (second compound 0.1 µM, first compound 1 µM): 37% | viability, T/C (second compound 0.1 µM, first compound 3.16 µM): 37% | viability, T/C (second compound 0.1 µM, first compound 10 µM): 38.5% | viability, T/C [5]: 73% | viability, T/C (second compound 0.316 µM, first compound 0.1 µM): 72.1% | viability, T/C [6]: 52.6% | viability, T/C (second compound 0.316 µM, first compound 1 µM): 39.8% | viability, T/C (second compound 0.316 µM, first compound 3.16 µM): 39.5% | viability, T/C (second compound 0.316 µM, first compound 10 µM): 40.5% | viability, T/C [7]: 65.2% | viability, T/C (second compound 1 µM, first compound 0.1 µM): 64.4% | viability, T/C [8]: 51.2% | viability, T/C (second compound 1 µM, first compound 1 µM): 40.6% | viability, T/C (second compound 1 µM, first compound 3.16 µM): 42.4% | viability, T/C (second compound 1 µM, first compound 10 µM): 38.2% | viability, T/C [9]: 62.8% | viability, T/C (second compound 3.16 µM, first compound 0.1 µM): 56.3% | viability, T/C [10]: 44.5% | viability, T/C (second compound 3.16 µM, first compound 1 µM): 37.3% | viability, T/C (second compound 3.16 µM, first compound 3.16 µM): 39.1% | viability, T/C (second compound 3.16 µM, first compound 10 µM): 35.1% | viability, T/C [11]: 57.3% | viability, T/C (second compound 10 µM, first compound 0.1 µM): 46.8% | viability, T/C [12]: 38.6% | viability, T/C (second compound 10 µM, first compound 1 µM): 32.6% | viability, T/C (second compound 10 µM, first compound 3.16 µM): 36.7% | viability, T/C (second compound 10 µM, first compound 10 µM): 27.8%

Cc1[nH]c2ccccc2c1CCNCc1ccc(/C=C/C(=O)NO)cc1 + Cc1cnc(CNC(=O)c2c(=O)c3ccc(N4CCCN(C)CC4)nc3n3c2sc2ccccc23)cn1
IC50 (second compound 0.0316 µM): 144 nM | IC50 (second compound 0.1 µM): 155 nM | IC50 (second compound 0.316 µM): 122 nM | IC50 (second compound 1 µM): 114 nM | IC50 (second compound 3.16 µM): 89.3 nM | IC50 (second compound 10 µM): < 0.999 nM | viability, T/C [13]: 95.1% | viability, T/C [14]: 89.1% | viability, T/C [15]: 93.1% | viability, T/C [1]: 73.6% | viability, T/C [16]: 57.9% | viability, T/C [2]: 35.5% | viability, T/C [17]: 83.1% | viability, T/C [18]: 69.4% | viability, T/C [19]: 68.1% | viability, T/C [3]: 73.2% | viability, T/C [20]: 58.9% | viability, T/C [4]: 35.3% | viability, T/C [21]: 73.7% | viability, T/C [22]: 79.5% | viability, T/C [23]: 58.2% | viability, T/C [5]: 69.3% | viability, T/C [24]: 53.7% | viability, T/C [6]: 32.9% | viability, T/C [25]: 70.8% | viability, T/C [26]: 66.2% | viability, T/C [27]: 68.2% | viability, T/C [7]: 58.1% | viability, T/C [28]: 56% | viability, T/C [8]: 26.4% | viability, T/C [29]: 58% | viability, T/C [30]: 58.6% | viability, T/C [31]: 59.4% | viability, T/C [9]: 53.8% | viability, T/C [32]: 50.3% | viability, T/C [10]: 18.6% | viability, T/C [33]: 53.2% | viability, T/C [34]: 46.2% | viability, T/C [35]: 51.7% | viability, T/C [11]: 46.1% | viability, T/C [36]: 42.6% | viability, T/C [12]: 1.07%

Cn1ncnc1[C@H]1c2n[nH]c(=O)c3cc(F)cc(c23)N[C@@H]1c1ccc(F)cc1 + Cc1cnc(CNC(=O)c2c(=O)c3ccc(N4CCCN(C)CC4)nc3n3c2sc2ccccc23)cn1
IC50 (second compound 0.0316 µM): > 316 nM | IC50 (second compound 0.1 µM): > 316 nM | IC50 (second compound 0.316 µM): > 316 nM | IC50 (second compound 1 µM): > 316 nM | IC50 (second compound 3.16 µM): > 316 nM | IC50 (second compound 10 µM): > 316 nM | viability, T/C [13]: 97.7% | viability, T/C [14]: 86.3% | viability, T/C [15]: 96.8% | viability, T/C [1]: 95% | viability, T/C [16]: 104% | viability, T/C [2]: 88% | viability, T/C [17]: 86.4% | viability, T/C [18]: 72.6% | viability, T/C [19]: 90.8% | viability, T/C [3]: 86.2% | viability, T/C [20]: 94.5% | viability, T/C [4]: 78.2% | viability, T/C [21]: 83.7% | viability, T/C [22]: 81.1% | viability, T/C [23]: 71.9% | viability, T/C [5]: 79.6% | viability, T/C [24]: 87.5% | viability, T/C [6]: 68% | viability, T/C [25]: 77.7% | viability, T/C [26]: 74.1% | viability, T/C [27]: 64.4% | viability, T/C [7]: 71.3% | viability, T/C [28]: 76.5% | viability, T/C [8]: 62.5% | viability, T/C [29]: 60.7% | viability, T/C [30]: 63.8% | viability, T/C [31]: 57.3% | viability, T/C [9]: 60.6% | viability, T/C [32]: 61% | viability, T/C [10]: 54% | viability, T/C [33]: 52.1% | viability, T/C [34]: 58.4% | viability, T/C [35]: 58.2% | viability, T/C [11]: 68.7% | viability, T/C [36]: 56.1% | viability, T/C [12]: 51.8%
